The test system of experiment [1] is ornithine decarboxylase (ODC). The experiment is described as follows: inhibition of TPA-induced ornithine decarboxylase (ODC) activity (retinoic acid-like activity; essentially method of Verma & Boutwell). The format is in vivo. From the text: The retionic acid like activity of these compounds was confirmed through the classic measure of retionic acid activity involving the effects of retionic acid on ornithine decarboxylase. The original work on the correlation between retinoic acid and decrease in cell proliferation was done by Verma & Boutwell, Cancer Research, 1977, 37, 2196-2201. That reference discloses that ornithine decarboxylase (ODC) activity increased precedent to polyamine biosynthesis. It has been established elsewhere that increases in polyamine synthesis can be correlated or associated with cellular proliferation. Thus, if ODC activity could be inhibited, cell hyperproliferation could be modulated.
By way of example of retinoic acid-like activity it is noted that in the assay conducted essentially in accordance with the method of Verma & Boutwell, ibid, the following examples of the preferred compounds of the present invention (Compounds 1, 2 and 3) elicited the following percent inhibition of TPA-induced ODC activity at the given calculations: […]

For experiment [2], the system named is ornithine decarboxylase (ODC). As to conditions: literature background, cited from earlier work.

Molecules are shown by their SMILES.

As to `CCOC(=O)c1ccc(OC(=O)c2ccc3c(c2)OC(C)(C)CC3(C)C)cc1` [Compound 1, Ethyl 4-(2,2,4,4-tetramethyl-7-chromanoyloxy) benzoate], the “% inhibition of TPA-induced ODC activity” value in experiment [1] (Dose 30 nmol) came out at 100%.
Regarding `CC1(C)CC(C)(C)c2ccc(C(=O)Oc3ccc(C(=O)OCc4ccccc4)cc3)cc2O1` [Compound 2, Benzyl 4-(2,2,4,4,tetramethyl-7-chromanoyloxy)benzoate], in experiment [1] (Dose 300 nmol), the “% inhibition of TPA-induced ODC activity” value was found to be 84%.
For the molecule `CC1(C)CC(C)(C)c2ccc(C(=O)Oc3ccc(C(=O)O)cc3)cc2O1` [Compound 3, 4-(2,2,4,4-tetramethyl-7-chromanoyloxy) benzoic acid], in experiment [1] (Dose 30 nmol), the “% inhibition of TPA-induced ODC activity” value worked out at 86%.
Regarding `CC1=C(/C=C/C(C)=C/C=C/C(C)=C/C(=O)O)C(C)(C)CCC1` [Retinoic acid], the “inhibition of TPA induction of ODC activity (in words)” value in experiment [2] (retinoic acid) is “inhibits this induction of ODC activity by TPA”.
`CCCCCCCCCCCCCC(=O)O[C@@H]1[C@@H](C)[C@@]2(O)[C@@H](C=C(CO)C[C@]3(O)C(=O)C(C)=C[C@@H]23)[C@@H]2C(C)(C)[C@]12OC(C)=O` [TPA, 12-0-tetradecanoyl-phorbol-13-acetate]: the “induction of ODC activity (in words)” value in experiment [2] (TPA) is “induces ODC activity”.

Values taken from patent US5348975A, “7-chromanyl esters of phenols and benzoic acids having retinoid-like activity” (Allergan, Inc., priority 1993, dated 1994).
